Test system: Plasmodium berghei
Test: Luciferase/luciferin-expressing antifolate-resistant parasites were used to infect a culture of HepG2 cells that were pre-incubated with compounds. Infected hepatocytes emit light due to the luciferase reaction. Assay results are presented as the percent inhibition of light emission compared to control. […]
Format: functional
Conditions: sporozoite; for IC90: read-out: LUCIFERASE INFECTION ASSAY - IC90
[1] = read-out: LUCIFERASE INFECTION ASSAY - IC50

Row | SMILES | IC50 [1] [µM] | IC90 [µM] | other results
1 | CNc1nc(CSc2ccc(Cl)cc2)nc2sc3c(c12)CCC3 | > 10 | > 10 | –
2 | COc1ccc(-c2nnc(SCc3csc(-c4ccccc4)n3)n2CCc2ccccc2)cc1 | – | > 10 | IC50 (FFLUC_HILL_SLOPE 7.96, FFLUC_R_SQUARED 0.134, read-out: LUCIFERASE INFECTION ASSAY - IC50): > 10 µM
3 | Cc1ccc(Cn2nc(C)c(C(=O)OCC(=O)/C=C3\N(C)c4ccccc4C3(C)C)c2Cl)cc1 | > 10 | > 10 | –
4 | CNc1nc2cnc(Nc3cccc(NC(C)=O)c3)cc2n1-c1ccccc1 | – | > 10 | IC50 (HEPG2TOX_HILL_SLOPE 1.67, HEPG2TOX_R_SQUARED 0.953, read-out: LUCIFERASE INFECTION ASSAY - IC50): > 10 µM
5 | O=C1/C(=C\c2ccccn2)N(CCc2ccccc2)S(=O)(=O)c2ccccc21 | > 8.45 | > 8.45 | –
6 | CCC(C)(C)c1ccc(Oc2ccc(NC(=O)CSc3nnc(-c4ccccc4)[nH]3)cc2)cc1 | – | 7.78 | IC50 (HEPG2TOX_HILL_SLOPE 9.08, HEPG2TOX_R_SQUARED 0.57, PBLUC_HILL_SLOPE 3.67, PBLUC_R_SQUARED 0.581, read-out: LUCIFERASE INFECTION ASSAY - IC50): 4.28 µM
7 | COc1cc(-c2cnc3ccc(Cc4ccc(F)cc4)nn23)cc(OC)c1OC | 6.26 | > 10 | –
8 | Cc1cc(C(=O)Nc2nc3ccccc3[nH]2)c(C)s1 | > 10 | > 10 | –
9 | CC(C)(C)S(=O)(=O)/C(C#N)=C/Nc1ccc(OC(F)(F)F)cc1 | > 9.47 | > 9.47 | –
10 | Cc1cc(=O)n2nc(COC(=O)c3ccccc3Nc3ccccc3)sc2n1 | > 10 | > 10 | –
11 | O=C(NNC(=O)c1nn(-c2ccccc2)cc1O)c1ccc(-n2cccn2)cc1 | – | 4.26 | IC50 (HEPG2TOX_HILL_SLOPE 1.34, HEPG2TOX_R_SQUARED 0.874, PBLUC_HILL_SLOPE 11.6, PBLUC_R_SQUARED 0.65, read-out: LUCIFERASE INFECTION ASSAY - IC50): 3.53 µM
12 | CC(C)(C)c1ccc(OCC(=O)N2CCC(C(N)=O)CC2)cc1 | > 10.4 | > 10.4 | –
13 | COc1cccc(C(=O)Nc2ccc3nc(-c4cc(OC)c(OC)c(OC)c4)nn3c2)c1 | – | 7.64 | IC50 (PBLUC_HILL_SLOPE 1.78, PBLUC_R_SQUARED 0.523, read-out: LUCIFERASE INFECTION ASSAY - IC50): 2.22 µM
14 | CCCCC1(Cc2ccccc2)C(=O)c2cccc3c4ccccc4n(c23)C1=O (stereo unspecified) | – | > 8.65 | IC50 (PBLUC_HILL_SLOPE 2.19, PBLUC_R_SQUARED 0.0283, read-out: LUCIFERASE INFECTION ASSAY - IC50): 8.01 µM
15 | Cc1c(-c2ccccc2)sc2[nH]c(CC(N)=O)nc(=O)c12 | – | 1.59 | IC50 (HEPG2TOX_HILL_SLOPE 1.61, HEPG2TOX_R_SQUARED 0.893, PBLUC_HILL_SLOPE 16.8, PBLUC_R_SQUARED 0.567, read-out: LUCIFERASE INFECTION ASSAY - IC50): 1.39 µM
16 | Cc1ccccc1C(=O)/C=c1\s/c(=C\c2ccc(O)cc2)c(=O)n1C | > 10 | > 10 | –
17 | CCCNC(=O)COC(=O)c1cc(Br)ccc1N | > 10 | > 10 | –
18 | O=C(NC1CC1)c1ccc(-c2cnc3c(Nc4cccc(OC(F)(F)C(F)F)c4)nccn23)cc1 | – | 2.49 | IC50 (HEPG2TOX_HILL_SLOPE 8.49, HEPG2TOX_R_SQUARED 0.235, PBLUC_HILL_SLOPE 3.35, PBLUC_R_SQUARED 0.643, read-out: LUCIFERASE INFECTION ASSAY - IC50): 1.29 µM
19 | O=c1[nH]nc(Sc2ncc([N+](=O)[O-])s2)n1Cc1ccccc1 | – | > 9.84 | IC50 (FFLUC_HILL_SLOPE 3.03, FFLUC_R_SQUARED 0.344, HEPG2TOX_HILL_SLOPE 12.4, HEPG2TOX_R_SQUARED 0.571, PBLUC_HILL_SLOPE 13, PBLUC_R_SQUARED 0.0851, read-out: LUCIFERASE INFECTION ASSAY - IC50): 8.7 µM
20 | COc1ccc(C(C)(C)C)cc1NC(=O)COC(=O)c1c(-c2ccccc2)csc1NC(=O)C=C(C)C | – | 8.12 | IC50 (FFLUC_HILL_SLOPE 1.58, FFLUC_R_SQUARED 0.454, PBLUC_HILL_SLOPE 2.65, PBLUC_R_SQUARED 0.35, read-out: LUCIFERASE INFECTION ASSAY - IC50): 3.55 µM
21 | CN(C)c1ccc(C2CC(=O)c3ccccc3N2)cc1 (stereo unspecified) | > 12.4 | > 12.4 | –
22 | O=S(=O)(NCc1cc(C(F)(F)F)cc(C(F)(F)F)c1)c1cc(C(F)(F)F)cc(C(F)(F)F)c1 | > 6.35 | > 6.35 | –
23 | Cc1cc(C)nc(-n2[nH]c(C)c(Cc3ccc(C(C)(C)C)cc3)c2=O)n1 | – | > 9.42 | IC50 (PBLUC_HILL_SLOPE 0.924, PBLUC_R_SQUARED 0.378, read-out: LUCIFERASE INFECTION ASSAY - IC50): 1.03 µM
24 | O=C(C1CCCN(c2cnccn2)C1)N1CCN(C(c2ccc(F)cc2)c2ccc(F)cc2)CC1 (stereo unspecified) | – | > 10 | IC50 (PBLUC_HILL_SLOPE 27.2, PBLUC_R_SQUARED 0.0353, read-out: LUCIFERASE INFECTION ASSAY - IC50): 9.76 µM

Row | SMILES | IC50 [1] [µM] | IC90 [µM] | other results
25 | Cc1ccc(C(=O)O)cc1NS(C)(=O)=O | > 10 | > 10 | –
26 | COc1ccc2c(C)cc(SCc3nc(=O)c4c(-c5ccc(Cl)cc5)csc4[nH]3)nc2c1 | > 10 | > 10 | –
27 | O=c1c2cc(Cl)cc(Cl)c2nc(-c2cccc(C(F)(F)F)c2)n1O | – | > 8.8 | IC50 (HEPG2TOX_HILL_SLOPE 1.01, HEPG2TOX_R_SQUARED 0.454, PBLUC_HILL_SLOPE 14.5, PBLUC_R_SQUARED 0.382, read-out: LUCIFERASE INFECTION ASSAY - IC50): 8.11 µM
28 | Cc1c(C)n(CCCO)c2ncn3nc(-c4ccc(Cl)cc4)nc3c12 | > 9.27 | > 9.27 | –
29 | Cc1ccc(S(=O)(=O)N2CCC[C@H]2C(=O)Nc2ccc(-c3nc4ccccc4[nH]3)cc2)cc1 | – | > 10 | IC50 (HEPG2TOX_HILL_SLOPE 1.59, HEPG2TOX_R_SQUARED 0.747, PBLUC_HILL_SLOPE 12.8, PBLUC_R_SQUARED 0.235, read-out: LUCIFERASE INFECTION ASSAY - IC50): 8.44 µM
30 | CCOC(=O)c1c(CC(C)C)csc1NC(=O)CNc1ccc(-n2cnnn2)cc1 | – | > 10 | IC50 (FFLUC_HILL_SLOPE 13, FFLUC_R_SQUARED 0.249, read-out: LUCIFERASE INFECTION ASSAY - IC50): > 10 µM
31 | O=C(COC(=O)C1Cc2ccccc2CN1S(=O)(=O)/C=C/c1ccccc1)c1ccccc1 (stereo unspecified) | – | > 10 | IC50 (PBLUC_HILL_SLOPE 0.237, PBLUC_R_SQUARED 0.0458, read-out: LUCIFERASE INFECTION ASSAY - IC50): > 10 µM
32 | Oc1ccccc1/C=N/Nc1cccc(C(F)(F)F)c1 | – | > 11.8 | IC50 (HEPG2TOX_HILL_SLOPE 6.57, HEPG2TOX_R_SQUARED 0.439, PBLUC_HILL_SLOPE 2.9, PBLUC_R_SQUARED 0.288, read-out: LUCIFERASE INFECTION ASSAY - IC50): > 11.8 µM
33 | O=c1c2ccccc2cnn1-c1nc2ccccc2s1 | 0.212 | 1.01 | –
34 | CCCCCCCCCCCCCCCCCC1=[N+](c2ccccc2)C(Nc2ccccc2)CN1c1ccccc1 (stereo unspecified) | – | > 5.61 | IC50 (HEPG2TOX_HILL_SLOPE 13, HEPG2TOX_R_SQUARED 0.218, read-out: LUCIFERASE INFECTION ASSAY - IC50): > 5.61 µM
35 | O=C(Nc1nnc(-c2ccco2)s1)c1csc(COc2ccc(Cl)cc2)n1 | – | > 10 | IC50 (PBLUC_HILL_SLOPE 1.45, PBLUC_R_SQUARED 0.301, read-out: LUCIFERASE INFECTION ASSAY - IC50): 4.28 µM
36 | COc1ccc(Br)cc1/C=C/c1ccc2c([N+](=O)[O-])cccc2n1 | > 10 | > 10 | –
37 | Cc1cc(C)c2c(=O)cc(C(=O)Nc3cccnc3)oc2c1 | – | 4.06 | IC50 (HEPG2TOX_HILL_SLOPE 1.93, HEPG2TOX_R_SQUARED 0.965, PBLUC_HILL_SLOPE 5.85, PBLUC_R_SQUARED 0.609, read-out: LUCIFERASE INFECTION ASSAY - IC50): 2.79 µM
38 | Cc1ccc(Nc2nnc(SC(C)C(=O)NC(C)c3ccc(F)cc3)s2)cc1 (stereo unspecified) | – | > 10 | IC50 (PBLUC_HILL_SLOPE 2.15, PBLUC_R_SQUARED 0.495, read-out: LUCIFERASE INFECTION ASSAY - IC50): 4.9 µM
39 | O=C1/C(=C\c2ccccn2)N(Cc2ccccc2)S(=O)(=O)c2ccccc21 | 2.87 | 5.19 | –
40 | CN1c2ccsc2C(=O)/C(=C/Nc2cccc(Cl)c2)S1(=O)=O | > 9.3 | > 9.3 | –
41 | Cc1sc2ncnc(Sc3ccccc3C(=O)NNc3c(Cl)cc(Cl)cc3Cl)c2c1C | > 10 | > 10 | –
42 | Cc1ccc(C)c(-n2nnnc2SCC(=O)NC(=O)NC23CC4CC(CC(C4)C2)C3)c1 | – | 9.88 | IC50 (PBLUC_HILL_SLOPE 3.63, PBLUC_R_SQUARED 0.524, read-out: LUCIFERASE INFECTION ASSAY - IC50): 5.39 µM
43 | O=C(COCc1nc2ccccc2s1)NCc1ccc(Cn2cccn2)cc1 | > 10 | > 10 | –
44 | Cc1cc2oc(=O)cc(COC(=O)c3ccccc3NCCO)c2cc1C | – | 5.07 | IC50 (HEPG2TOX_HILL_SLOPE 8.75, HEPG2TOX_R_SQUARED 0.762, PBLUC_HILL_SLOPE 95.5, PBLUC_R_SQUARED 0.164, read-out: LUCIFERASE INFECTION ASSAY - IC50): 4.95 µM
45 | O=C(Nc1ccccc1)Nc1ccc(C(=O)Nc2cc(C(F)(F)F)ccc2N2CCOCC2)s1 | – | 5.82 | IC50 (HEPG2TOX_HILL_SLOPE 11.7, HEPG2TOX_R_SQUARED 0.346, PBLUC_HILL_SLOPE 5.22, 24.2, PBLUC_R_SQUARED 0.290, 0.170, read-out: LUCIFERASE INFECTION ASSAY - IC50): 4.29 µM
46 | CCc1c(C)nc2c(-c3ccccc3)c(C)nn2c1Nc1ccc(NC(C)=O)cc1 | – | > 8.26 | IC50 (PBLUC_HILL_SLOPE 3.43, PBLUC_R_SQUARED 0.461, read-out: LUCIFERASE INFECTION ASSAY - IC50): 5.52 µM
47 | Cc1ccc(-n2nnnc2SCc2nc(-c3ccc(C)c(F)c3)no2)c(C)c1 | > 10 | > 10 | –
48 | Cc1oc(C(C)(C)C)cc1C(=O)Nc1ccc([N+](=O)[O-])cc1 | > 10.9 | > 10.9 | –

Reference: ChEMBL document CHEMBL4483862, “Open-source discovery of chemical leads for next-generation chemoprotective antimalarials” (2018)
